Where “and” joins values, the source holds several entries; their conditions need not be identical. Equal entries are not always repeated. Where two headings read alike, the source gives them in different places.
How the values were obtained:
[1] = system: rice blast fungi; type: in vivo, Pyricularia oryzae
[2] = system: rice blast fungi; type: in vivo, Pyricularia oryzae; remark: listed apart in the source

Row | Molecule | Protective value ([1]; 3 ppm) | Protective value ([1]; 10 ppm) | Protective value ([2]; 30 ppm) | Protective value ([2]; 100 ppm) | Protective value ([2]; 37.5 ppm) | Protective value ([2]; 75 ppm) | Protective value ([1]; in vivo) | Protective value ([2]; in vivo)
1 | 2,3-dimethyl-6-t-butyl-8-fluoro-4-acetoxyacetylquinoline [Compound 11] | 94 | 100 | 88 | 99 | – | – | – | –
2 | 2,3-dimethyl-6-t-butyl-8-fluoro-4-butyrylquinoline [Compound 4] | – | – | – | – | 66 | 94 | – | –
3 | 2,3-dimethyl-6-t-butyl-8-fluoro-4-methoxyacetylquinoline [Compound 10] | 99 | 100 | 90 | 100 | – | – | – | –
4 | 2,3-dimethyl-6-t-butyl-8-fluoro-4-n-butoxycarbonyl-quinoline [Compound 9] | – | – | – | – | – | – | 99 and 90 | 98 and 87
5 | 2,3-dimethyl-6-t-butyl-8-fluoro-4-n-propoxycarbonyl-quinoline [Compound 8] | – | – | – | – | – | – | 100 and 92 | 98 and 84
6 | 2,3-dimethyl-6-t-butyl-8-fluoro-4-valerylquinoline [Compound 5] | 84 | 99 | – | – | 82 | 95 | – | –
7 | Cc1nc2c(F)cc(C(C)(C)C)cc2c(O)c1C [Compound 1, 2,3-dimethyl-6-t-butyl-8-fluoro-4-hydroxyquinoline] | 93 | 100 | – | – | – | – | – | –

From patent US6787557B2 (priority 2000, dated 2004)
